Numbered stars: 1 amine (or outer) side, 2 acyl side, 3 side chain; on linkers, the order of the positions; unused ones are H or OH. Bridge positions count the residues as written; N and C are the ends. Square brackets hold non-standard residues; d marks the D form. Peptide text beside a SMILES is read from it. * marks the point of attachment. ξ: configuration not given here. Bip = N[C@@H](Cc1ccc(-c2ccccc2)cc1)C(=O)O; Ala(2-furyl) = N[C@@H](Cc1ccco1)C(=O)O; Phe(3-Me) = Cc1cccc(C[C@H](N)C(=O)O)c1; NMeAEEA = CN(CCOCCOCC(=O)[*:2])[*:1]; 4Pal = N[C@@H](Cc1ccncc1)C(=O)O; Cha = N[C@@H](CC1CCCCC1)C(=O)O; dNMeN = CN[C@H](CC(N)=O)C(=O)O; Thr(3ξ) = CC(O)[C@H](N)C(=O)O; Carboxymethyl = O=C(O)C*; Orn = NCCC[C@H](N)C(=O)O; Aun = NCCCCCCCCCCC(=O)O; Dab = NCC[C@H](N)C(=O)O; AEEA = NCCOCCOCC(=O)O
Molecular target: T1, PD-1/PD-L1 interaction (PE-labeled human PD-L1-Ig binding to Jurkat cell line over-expressing human PD-1) (Homo sapiens, UniProt Q15116)
T1 construct: expressed in transfected cells; host or cells: Jurkat
T1 sequence (Q15116 25-288): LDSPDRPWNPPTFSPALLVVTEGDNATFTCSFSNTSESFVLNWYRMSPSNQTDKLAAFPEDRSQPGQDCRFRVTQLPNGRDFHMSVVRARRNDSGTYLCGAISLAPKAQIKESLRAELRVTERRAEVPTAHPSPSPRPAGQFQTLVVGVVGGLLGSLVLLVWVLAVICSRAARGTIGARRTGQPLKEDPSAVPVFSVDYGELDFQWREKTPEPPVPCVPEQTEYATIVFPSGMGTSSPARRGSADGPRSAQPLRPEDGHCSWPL
Experiment: Jurkat-PD-1 Cell Binding High-Content Screening Assay (CBA)
Assay type: cell-based
Settings: Jurkat cell line over-expressing human PD-1; PE-labeled PD-L1-Ig 20 nM final; read-out: Jurkat hPD1-PDL1 IC50
Method in brief: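 Jurkat-hPD-1 cells, DMEM/10% FCS; cpd 2 h 37° C; PE-PD-L1-Ig 20 nM final, 1 h; 4% PFA fix + Hoechst 33342, 3× dPBS wash; high-content imaging read-out.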

SMILES: Cc1cccc(C[C@@H]2NC(=O)[C@H](CC(=O)O)NC(=O)[C@H](Cc3ccc(OCC(=O)O)cc3)NC(=O)[C@H](CCCNC(=N)N)NC(=O)CSC[C@@H](C(=O)N[C@@H](CCN)C(=O)NCCCCCCCCCCC(=O)O)NC(=O)[C@H](CCC(=O)O)NC(=O)[C@H](C(C)C)NC(=O)[C@H](CC3CCCCC3)NC(=O)[C@H](CCN)NC(=O)[C@@H](CC(C)C)NC(=O)[C@H](CCCN)NC(=O)[C@H](Cc3ccc(O)cc3)NC(=O)[C@H](Cc3ccc(-c4ccccc4)cc3)NC(=O)[C@H](CC(C)C)NC2=O)c1 [Compound 3342] ({CH2CO}-RY(Carboxymethyl)D[Phe(3-Me)]L[Bip]Y[Orn][dL][Dab][Cha]VEC[Dab][Aun]-OH; thioether N-14)
- IC50: 38.3 nM

SMILES: CC(C)C[C@H]1NC(=O)[C@H](CCCN)NC(=O)[C@H](Cc2ccc(O)cc2)NC(=O)[C@H](Cc2ccc(-c3ccccc3)cc2)NC(=O)[C@H](C(C)C)NC(=O)[C@H](Cc2c[nH]c3ccccc23)NC(=O)[C@H](CC(=O)O)NC(=O)[C@H](Cc2ccc(OCC(=O)O)cc2)NC(=O)[C@H](CCCNC(=N)N)NC(=O)CSC[C@@H](C(=O)N[C@@H](CCN)C(=O)NCCCCCCCCCCC(=O)O)NC(=O)[C@H](Cc2ccc(O)cc2)NC(=O)[C@H](C(C)C)NC(=O)[C@H](CC2CCCCC2)NC(=O)[C@H](CCN)NC1=O [Compound 3343] ({CH2CO}-RY(Carboxymethyl)DWV[Bip]Y[Orn][dL][Dab][Cha]VYC[Dab][Aun]-OH; thioether N-14)
- IC50: 66.2 nM

SMILES: CC(C)C[C@H]1NC(=O)[C@H](CCCN)NC(=O)[C@H](C(C)C)NC(=O)[C@H](Cc2ccc(-c3ccccc3)cc2)NC(=O)[C@H](C(C)C)NC(=O)[C@H](Cc2c[nH]c3ccccc23)NC(=O)[C@H](CC(=O)O)NC(=O)[C@H](Cc2ccc(OCC(=O)O)cc2)NC(=O)[C@H](CCCNC(=N)N)NC(=O)CSC[C@@H](C(=O)N[C@@H](CCCN)C(=O)NCCCCCCCCCCC(=O)O)NC(=O)[C@H](C(C)O)NC(=O)[C@H](C(C)C)NC(=O)[C@H](CC2CCCCC2)NC(=O)[C@H](CCN)NC1=O (stereo partly drawn) [Compound 3344] ({CH2CO}-RY(Carboxymethyl)DWV[Bip]V[Orn][dL][Dab][Cha]V[Thr(3ξ)]C[Orn][Aun]-OH; thioether N-14)
- IC50: 14.6 nM

SMILES: CC(C)C[C@H]1NC(=O)[C@H](CCCN)NC(=O)[C@H](C(C)C)NC(=O)[C@H](Cc2ccc(-c3ccccc3)cc2)NC(=O)[C@H](C(C)C)NC(=O)[C@H](Cc2c[nH]c3ccccc23)NC(=O)[C@H](CC(=O)O)NC(=O)[C@H](Cc2ccc(OCC(=O)O)cc2)NC(=O)[C@H](CCCNC(=N)N)NC(=O)CSC[C@@H](C(=O)N[C@@H](CCCN)C(=O)NCCCCCCCCCCC(=O)O)NC(=O)[C@H](CCC(=O)O)NC(=O)[C@H](C(C)C)NC(=O)[C@H](CC2CCCCC2)NC(=O)[C@H](CCN)NC1=O [Compound 3345] ({CH2CO}-RY(Carboxymethyl)DWV[Bip]V[Orn][dL][Dab][Cha]VEC[Orn][Aun]-OH; thioether N-14)
- IC50: 9.1 nM

SMILES: CC(C)C[C@H]1NC(=O)[C@H](CCCN)NC(=O)[C@H](C(C)C)NC(=O)[C@H](Cc2ccc(-c3ccccc3)cc2)NC(=O)[C@H](C(C)C)NC(=O)[C@H](Cc2c[nH]c3ccccc23)NC(=O)[C@H](CC(=O)O)NC(=O)[C@H](Cc2ccc(OCC(=O)O)cc2)NC(=O)[C@H](CCCNC(=N)N)NC(=O)CSC[C@@H](C(=O)N[C@@H](CCCN)C(=O)NCCCCCCCCCCC(=O)O)NC(=O)[C@H](CCCN)NC(=O)[C@H](C(C)C)NC(=O)[C@H](CC2CCCCC2)NC(=O)[C@H](CCN)NC1=O [Compound 3346] ({CH2CO}-RY(Carboxymethyl)DWV[Bip]V[Orn][dL][Dab][Cha]V[Orn]C[Orn][Aun]-OH; thioether N-14)
- IC50: 10.9 nM

SMILES: CC(C)C[C@H]1NC(=O)[C@H](CCCN)NC(=O)[C@H](C(C)C)NC(=O)[C@H](Cc2ccc(-c3ccccc3)cc2)NC(=O)[C@H](C(C)C)NC(=O)[C@H](Cc2c[nH]c3ccccc23)NC(=O)[C@H](CC(=O)O)NC(=O)[C@H](Cc2ccc(OCC(=O)O)cc2)NC(=O)[C@H](CCCNC(=N)N)NC(=O)CSC[C@@H](C(=O)NCCOCCOCC(=O)NCCCCCCCCCCC(=O)O)NC(=O)[C@H](CCCN)NC(=O)[C@H](C(C)C)NC(=O)[C@H](CC2CCCCC2)NC(=O)[C@H](CCN)NC1=O [Compound 3347] ({CH2CO}-RY(Carboxymethyl)DWV[Bip]V[Orn][dL][Dab][Cha]V[Orn]C[AEEA][Aun]-OH; thioether N-14)
- IC50: 3.7 nM

SMILES: Cc1cccc(C[C@@H]2NC(=O)[C@H](CC(=O)O)NC(=O)[C@H](Cc3ccc(OCC(=O)O)cc3)NC(=O)[C@H](Cc3ccncc3)NC(=O)CSC[C@@H](C(=O)N[C@@H](CCCN)C(=O)NCCCCCCCCCCC(=O)O)NC(=O)[C@H](CCCN)NC(=O)[C@H](C(C)C)NC(=O)[C@H](CC3CCCCC3)NC(=O)[C@H](CCN)NC(=O)[C@@H](CC(C)C)NC(=O)[C@H](CCCN)NC(=O)[C@H](C(C)C)NC(=O)[C@H](Cc3ccc(-c4ccccc4)cc3)NC(=O)[C@H](C(C)C)NC2=O)c1 [Compound 3348] ({CH2CO}-[4Pal]Y(Carboxymethyl)D[Phe(3-Me)]V[Bip]V[Orn][dL][Dab][Cha]V[Orn]C[Orn][Aun]-OH; thioether N-14)
- IC50: 12.8 nM

SMILES: CC(C)C[C@H]1NC(=O)[C@H](CCCN)NC(=O)[C@H](Cc2ccc(O)cc2)NC(=O)[C@H](Cc2ccc(-c3ccccc3)cc2)NC(=O)[C@H](C(C)C)NC(=O)[C@H](Cc2c[nH]c3ccccc23)NC(=O)[C@H](CC(=O)O)NC(=O)[C@H](Cc2ccc(OCC(=O)O)cc2)NC(=O)[C@H](CCCNC(=N)N)NC(=O)CSC[C@@H](C(=O)N[C@@H](CCN)C(=O)NCCCCCCCCCCC(=O)O)NC(=O)[C@H](CCC(=O)O)NC(=O)[C@H](C(C)C)NC(=O)[C@H](CC2CCCCC2)NC(=O)[C@H](CCN)NC1=O [Compound 3349] ({CH2CO}-RY(Carboxymethyl)DWV[Bip]Y[Orn][dL][Dab][Cha]VEC[Dab][Aun]-OH; thioether N-14)
- IC50: 8.5 nM

SMILES: Cc1cccc(C[C@@H]2NC(=O)[C@H](CC(=O)O)NC(=O)[C@H](Cc3ccc(OCC(=O)O)cc3)NC(=O)[C@H](C(C)O)NC(=O)CSC[C@@H](C(=O)NCCOCCOCC(=O)NCCCCCCCCCCC(=O)O)NC(=O)[C@H](CCCN)NC(=O)[C@H](C(C)C)NC(=O)[C@H](CC3CCCCC3)NC(=O)[C@H](CCN)NC(=O)[C@@H](CC(C)C)NC(=O)[C@H](CCN)NC(=O)[C@H](C(C)C)NC(=O)[C@H](Cc3ccc(-c4ccccc4)cc3)NC(=O)[C@H](C(C)C)NC2=O)c1 (stereo partly drawn) [Compound 3350] ({CH2CO}-[Thr(3ξ)]Y(Carboxymethyl)D[Phe(3-Me)]V[Bip]V[Dab][dL][Dab][Cha]V[Orn]C[AEEA][Aun]-OH; thioether N-14)
- IC50: 6.3 nM

SMILES: Cc1cccc(C[C@@H]2NC(=O)[C@H](CC(=O)O)NC(=O)[C@H](Cc3ccc(OCC(=O)O)cc3)NC(=O)[C@H](CCCNC(=N)N)NC(=O)CSC[C@@H](C(=O)NCCOCCOCC(=O)NCCCCCCCCCCC(=O)O)NC(=O)[C@H](CCCN)NC(=O)[C@H](C(C)C)NC(=O)[C@H](CC3CCCCC3)NC(=O)[C@H](CCN)NC(=O)[C@@H](CC(C)C)NC(=O)[C@H](CCN)NC(=O)[C@H](C(C)C)NC(=O)[C@H](Cc3ccc(-c4ccccc4)cc3)NC(=O)[C@H](C(C)C)NC2=O)c1 [Compound 3351] ({CH2CO}-RY(Carboxymethyl)D[Phe(3-Me)]V[Bip]V[Dab][dL][Dab][Cha]V[Orn]C[AEEA][Aun]-OH; thioether N-14)
- IC50: 4.2 nM

SMILES: Cc1cccc(C[C@@H]2NC(=O)[C@H](CC(=O)O)NC(=O)[C@H](Cc3ccc(OCC(=O)O)cc3)NC(=O)[C@H](Cc3ccco3)NC(=O)CSC[C@@H](C(=O)N(C)[C@H](CC(N)=O)C(=O)NCCCCCCCCCCC(=O)O)NC(=O)[C@H](CCCN)NC(=O)[C@H](C(C)C)NC(=O)[C@H](CC3CCCCC3)NC(=O)[C@H](CCN)NC(=O)[C@@H](CC(C)C)NC(=O)[C@H](CCN)NC(=O)[C@H](C(C)C)NC(=O)[C@H](Cc3ccc(-c4ccccc4)cc3)NC(=O)[C@H](C(C)C)NC2=O)c1 [Compound 3352] ({CH2CO}-[Ala(2-furyl)]Y(Carboxymethyl)D[Phe(3-Me)]V[Bip]V[Dab][dL][Dab][Cha]V[Orn]C[dNMeN][Aun]-OH; thioether N-14)
- IC50: 26.5 nM

SMILES: Cc1cccc(C[C@@H]2NC(=O)[C@H](CC(=O)O)NC(=O)[C@H](Cc3ccc(OCC(=O)O)cc3)NC(=O)[C@H](C(C)O)NC(=O)CSC[C@@H](C(=O)N(C)CCOCCOCC(=O)NCCCCCCCCCCC(=O)O)NC(=O)[C@H](CCCN)NC(=O)[C@H](C(C)C)NC(=O)[C@H](CC3CCCCC3)NC(=O)[C@H](CCN)NC(=O)[C@@H](CC(C)C)NC(=O)[C@H](CCN)NC(=O)[C@H](C(C)C)NC(=O)[C@H](Cc3ccc(-c4ccccc4)cc3)NC(=O)[C@H](C(C)C)NC2=O)c1 (stereo partly drawn) [Compound 3353] ({CH2CO}-[Thr(3ξ)]Y(Carboxymethyl)D[Phe(3-Me)]V[Bip]V[Dab][dL][Dab][Cha]V[Orn]C[NMeAEEA][Aun]-OH; thioether N-14)
- IC50: 140 nM

SMILES: Cc1cccc(C[C@@H]2NC(=O)[C@H](CC(=O)O)NC(=O)[C@H](Cc3ccc(OCC(=O)O)cc3)NC(=O)[C@H](CCCNC(=N)N)NC(=O)CSC[C@@H](C(=O)N[C@@H](CCN)C(=O)NCCCCCCCCCCC(=O)O)NC(=O)[C@H](C(C)O)NC(=O)[C@H](C(C)C)NC(=O)[C@H](CC3CCCCC3)NC(=O)[C@H](CCN)NC(=O)[C@@H](CC(C)C)NC(=O)[C@H](CCCN)NC(=O)[C@H](CCC(N)=O)NC(=O)[C@H](Cc3ccc(-c4ccccc4)cc3)NC(=O)[C@H](C(C)C)NC2=O)c1 (stereo partly drawn) [Compound 3355] ({CH2CO}-RY(Carboxymethyl)D[Phe(3-Me)]V[Bip]Q[Orn][dL][Dab][Cha]V[Thr(3ξ)]C[Dab][Aun]-OH; thioether N-14)
- IC50: 8.1 nM

SMILES: Cc1cccc(C[C@@H]2NC(=O)[C@H](CC(=O)O)NC(=O)[C@H](Cc3ccc(OCC(=O)O)cc3)NC(=O)[C@H](CCCNC(=N)N)NC(=O)CSC[C@@H](C(=O)N[C@@H](CCN)C(=O)NCCCCCCCCCCC(=O)O)NC(=O)[C@H](CCCN)NC(=O)[C@H](C(C)C)NC(=O)[C@H](CC3CCCCC3)NC(=O)[C@H](CCN)NC(=O)[C@@H](CC(C)C)NC(=O)[C@H](CCCN)NC(=O)[C@H](CCC(N)=O)NC(=O)[C@H](Cc3ccc(-c4ccccc4)cc3)NC(=O)[C@H](C(C)C)NC2=O)c1 [Compound 3356] ({CH2CO}-RY(Carboxymethyl)D[Phe(3-Me)]V[Bip]Q[Orn][dL][Dab][Cha]V[Orn]C[Dab][Aun]-OH; thioether N-14)
- IC50: 6.8 nM

Source: US20260022142A1, “MACROCYCLIC IMMUNOMODULATORS” (Bristol-Myers Squibb Company, priority 2022, published 2026)
